Experiments:
[1] = Biodistribution in AR42J tumor-bearing mice; conditions: female, CD-1 nude (athymic nude), mouse, iv, total radioactivity, i.v. ~5 MBq (~1 nmol), mean ± SD, n=3; for tissue to tissue ratio at 0.5 h / tissue uptake at 0.5 h: 30 min p.i.; for tissue to tissue ratio at 2 h / tissue uptake at 2 h: 2 h p.i.; for tissue to tissue ratio at 5 h / tissue uptake at 5 h: 5 h p.i.; for tissue uptake at 0.5 h / tissue uptake at 2 h / tissue uptake at 5 h: Biodistribution
Procedure: Female athymic nude mice (CD-1 nude), age 5–6 weeks, were obtained from Charles River Laboratories, Sulzfeld, Germany. U87MG cells and AR42J-cells were suspended in PBS (5 × 10^6 cells in 100 μL) and subcutaneously inoculated on each shoulder. Two to three weeks later, when the tumor reached a size of about 300–500 mm^3, the mice were used for the in vivo studies.
Biodistribution studies were performed with U87MG tumor and AR42J tumor-bearing mice 2 weeks after tumor cell inoculation. ^44Sc- and ^68Ga-labeled peptides (~5 MBq, ~1 nmol per mouse) were intravenously injected in a volume of 100–200 μL. Mice were sacrificed at 30 min, 2 h and 5 h after injection (p.i.) of the ^44Sc-labeled peptides. Mice which were injected with ^68Ga-labeled peptides were sacrificed at 30 min and 2 h p.i. Selected tissues and organs were collected, weighed, and counted for radioactivity using a γ-counter (Wallac Wizard 1480, Perkin Elmer). The results were listed as a percentage of the injected activity per gram of tissue mass (% IA/g), using counts of a defined volume of the original injection solution counted at the same time. The data were analyzed for significance using a two-way ANOVA test (Graph Pad Prism 6 software, version 6.05). A p-value of < 0.05 was considered statistically significant.

AR42J tumor-bearing mice = experiment: PET/CT imaging of AR42J tumor-bearing mice; conditions: 3 h after i.v. injection of ~10 MBq (~1 nmol; ^44Sc-NODAGA-NOC ~3 nmol), one or two mice
Procedure: A bench-top preclinical PET scanner (G8, Sofie Biosciences, California, U.S.A. and Perkin Elmer, Massachusetts, U.S.A.) was employed for the PET scans of the tumor-bearing mice. The energy window was set to 150–650 keV. Mice were injected intravenously with ^44Sc- or ^68Ga-labeled peptides (~10 MBq, ~1 nmol per mouse) in a volume of 100–200 μL. The PET scans were performed 3 h and 5 h after injection of the ^44Sc-labeled peptides and 3 h after injection of the ^68Ga-labeled peptides, using G8 acquisition software (version 2.0.0.10). All static PET scans lasted for 20 min. During the acquisition the mice were anesthetized by inhalation of a mixture of isoflurane and oxygen. The images were reconstructed with maximum-likelihood expectation maximization (MLEM). Gauss post-reconstruction filtering was performed using VivoQuant post-processing software (version 2.10, inviCRO Imaging Services and Software, Boston, U.S.A.).

[2] = AR42J tumor / blood, Tumor-to-blood ratio
[3] = AR42J tumor / kidneys, Tumor-to-kidney ratio
[4] = AR42J tumor / liver, Tumor-to-liver ratio

C[C@@H](O)[C@@H]1NC(=O)[C@H](CCCCN)NC(=O)[C@@H](Cc2c[nH]c3ccccc23)NC(=O)[C@H](Cc2cccc3ccccc23)NC(=O)[C@@H](NC(=O)[C@@H](Cc2ccccc2)NC(=O)CCC(C(=O)O)N2CCN(CC(=O)O)CCN(CC(=O)O)CC2)CSSC[C@@H](C(=O)N[C@H](CO)[C@@H](C)O)NC1=O (some centres unmarked) [^44Sc-NODAGA-NOC, metal not drawn]
tissue to tissue ratio at 0.5 h [1, 2]: 5.23 ± 0.22 | tissue to tissue ratio at 2 h [1, 2]: 50.3 ± 16.8 | tissue to tissue ratio at 5 h [1, 2]: 78.6 ± 6.95 | tissue to tissue ratio at 0.5 h [1, 3]: 0.8 ± 0.1 | tissue to tissue ratio at 2 h [1, 3]: 1.22 ± 0.34 | tissue to tissue ratio at 5 h [1, 3]: 0.87 ± 0.24 | tissue to tissue ratio at 0.5 h [1, 4]: 8.13 ± 0.72 | tissue to tissue ratio at 5 h [1, 4]: 11.6 ± 1.51 | tissue uptake at 0.5 h ([1]; AR42J tumor): 9.9 ± 0.66 %ID/g | tissue uptake at 2 h ([1]; AR42J tumor): 10.2 ± 1.17 %ID/g | tissue uptake at 5 h ([1]; AR42J tumor): 10.8 ± 0.37 %ID/g | tissue uptake at 5 h ([1]; adrenals): 2.87 ± 0.95 %ID/g | tissue uptake at 0.5 h ([1]; blood): 1.89 ± 0.08 %ID/g | tissue uptake at 2 h ([1]; blood): 0.22 ± 0.06 %ID/g | tissue uptake at 5 h ([1]; blood): 0.14 ± 0.01 %ID/g | tissue uptake at 0.5 h ([1]; bone): 1.38 ± 0.17 %ID/g | tissue uptake at 5 h ([1]; bone): 0.46 ± 0.06 %ID/g | tissue uptake at 0.5 h ([1]; brain): 0.09 ± 0.01 %ID/g | tissue uptake at 5 h ([1]; brain): 0.06 ± 0.01 %ID/g | tissue uptake at 5 h ([1]; heart): 0.3 ± 0.04 %ID/g | tissue uptake at 0.5 h ([1]; intestines, 5 MBq per mouse): 0.74 ± 0.1 %ID/g | tissue uptake at 2 h ([1]; intestines): 0.29 ± 0.07 %ID/g | tissue uptake at 5 h ([1]; intestines): 0.38 ± 0.06 %ID/g | tissue uptake at 0.5 h ([1]; kidneys): 12.4 ± 1.41 %ID/g | tissue uptake at 2 h ([1]; kidneys): 8.64 ± 1.62 %ID/g | tissue uptake at 5 h ([1]; kidneys): 13 ± 2.98 %ID/g | tissue uptake at 0.5 h ([1]; liver): 1.22 ± 0.11 %ID/g | tissue uptake at 2 h ([1]; liver): 0.88 ± 0.15 %ID/g | tissue uptake at 5 h ([1]; liver): 0.94 ± 0.12 %ID/g | tissue uptake at 0.5 h ([1]; lung): 4.28 ± 0.03 %ID/g | tissue uptake at 2 h ([1]; lung): 1.19 ± 0.28 %ID/g | tissue uptake at 5 h ([1]; lung): 0.89 ± 0.14 %ID/g | tissue uptake at 0.5 h ([1]; muscle): 0.66 ± 0.08 %ID/g | tissue uptake at 5 h ([1]; muscle): 0.26 ± 0.07 %ID/g | tissue uptake at 0.5 h ([1]; pancreas, 5 MBq per mouse): 1.6 ± 0.12 %ID/g | tissue uptake at 2 h ([1]; pancreas, 5 MBq per mouse): 1.12 ± 0.07 %ID/g | tissue uptake at 5 h ([1]; pancreas, 5 MBq per mouse): 1.35 ± 0.29 %ID/g | tissue uptake at 0.5 h ([1]; spleen): 0.91 ± 0.2 %ID/g | tissue uptake at 2 h ([1]; spleen): 0.38 ± 0.05 %ID/g | tissue uptake at 5 h ([1]; spleen): 0.47 ± 0.05 %ID/g | tissue uptake at 0.5 h ([1]; stomach, 5 MBq per mouse): 1.45 ± 0.28 %ID/g | tissue uptake at 2 h ([1]; stomach, 5 MBq per mouse): 1.26 ± 0.22 %ID/g | tissue uptake at 5 h ([1]; stomach, 5 MBq per mouse): 1.24 ± 0.09 %ID/g | PET/CT distribution of radioactivity (in words) (AR42J tumor-bearing mice): accumulated solely in tumors and kidneys

— article PMC5843811, “^44Sc for labeling of DOTA- and NODAGA-functionalized peptides: preclinical in vitro and in vivo investigations” (EJNMMI Radiopharmacy and Chemistry, 2016)
